In the METLIN SMRT retention time set (Domingo-Almenara et al. 2019) one finds RP-LC retention time data, which are given here for 80 compounds.

The data set can be described thus: gradient 5% acetonitrile 3 min, to 50% in 2 min, to 85% in 15 min, held 3 min, 100 µL/min. The settings on record: column: Zorbax Extend-C18 2.1 x 50 mm; eluents: water / acetonitrile, 0.1% formic acid. In outline:
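The system's dead and dwell volumes were 40 μL and 900 μL, with a Zorbax Extend-C18 column (2.1 × 50 mm, 1.8 μm) run at 100 μL/min in water and acetonitrile containing 0.1% formic acid each. Pure standards were analyzed in mixtures of ~100 molecules by HPLC–quadrupole time-of-flight mass spectrometry in positive and negative ionization mode. Retention time was assigned from computationally picked, manually inspected adduct peaks.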
For the compound `COc1ccc(C2CCCN2C(=O)c2ccnn2C)cc1` (stereo not given), the RP-LC retention time stood at 722 s.
Then `O=C(c1sc2ncccc2c1-n1cccc1)N1CCN(c2ccccc2Cl)CC1`, with 1120 s.
`Cc1ccccc1-c1noc(C2CCCN2S(=O)(=O)c2ccc(C(C)C)cc2)n1` (stereo not given) gave an RP-LC retention time of 1340 s.
The figure for `CCn1cc(CC(=O)NCc2cccc(F)c2)c2cccnc21` is 716 s.
Then `CCN1c2cc(F)ccc2C(=O)NC12CCN(C(=O)c1ccccc1C)CC2`, with 835 s.
Then `COc1ccc2[nH]cc(CCNC(=O)C3CCN(S(=O)(=O)c4ccc5c(ccn5C)c4)CC3)c2c1`, with 851 s; and `CCN(CC)CCNCc1ccc(-c2ccc(Cl)cc2)o1`, with 591 s.
With `Cc1ccc(CNC(=O)C2(C)CN(S(C)(=O)=O)CC(=O)N2c2cc(C)cc(C)c2)cc1` (stereo not given), the RP-LC retention time turned out to be 860 s.
Regarding `COc1ccc(Cc2nc3nccc(-c4ccsc4)n3n2)cc1`, the RP-LC retention time was 897 s.
The figure for `CCC1=C(c2ccc(C)cc2)S(=O)(=O)N=C1N1CCC(C(=O)NCCCOC(C)C)CC1` is 844 s.
The figure for `N#Cc1ccc(Cl)cc1NC(=O)c1cccn(Cc2cccc(C(F)(F)F)c2)c1=O` is 1090 s.
The figure for `CCc1ccc(S(=O)(=O)NCCOc2ccc(-c3ccco3)nn2)s1` is 804 s; for `Cn1ncc(NC(=O)c2ccc(Br)cc2)c(N2CCOCC2)c1=O` it is 814 s.
Turning to `COc1cc(CN2CCc3nc(N4CCN(c5ccccn5)CC4)ncc3C2)cc(OC)c1OC`, the RP-LC retention time stood at 567 s.
The figure for `COc1ccc(-c2nnc(COc3ccc(NC(=O)c4ccoc4)cc3)o2)cc1` is 738 s; for `CCc1nn2c(CNC(=O)c3ccc(OC)cc3)c(-c3ccccc3)nc2s1` it is 881 s.
In turn, `COCC1CN(C2CCC2)CC12CCN(C(=O)c1ccc(C)s1)CC2` (stereo not given) had an RP-LC retention time of 645 s.
Consider `COCCN(CCOC)c1nc(-c2ccc([N+](=O)[O-])cc2)nc2ccccc12`, for which the RP-LC retention time amounted to 849 s.
Then `CCN(C(=O)C1CCCN(c2ncnc3c2nc2n3CCCCC2)C1)c1cc(C)ccc1C` (stereo not given), with 905 s; and `CCN(CCN(C)C)c1nc(-c2ccc(OC)cc2)nc2ccccc12`, with 562 s.
Then `Cc1ccc(-c2cc3n(n2)CCCN(C(=O)c2cc(CN4CCOCC4)on2)C3)o1`, with 617 s; and `O=C(Cn1cnc2c(sc3nc(-c4ccccc4)ccc32)c1=O)Nc1ccc(F)c(Cl)c1`, with 1110 s.
In turn, `COCC(C)(O)CNC(=O)c1cn(C)nc1OC` (stereo not given) showed an RP-LC retention time of 561 s.
The compound `CC(C)OCCCNC(=O)c1ccc2c(c1)NC(=O)C(C(C)C)N2` (stereo not given) showed an RP-LC retention time of 688 s.
Turning to `CCCCn1c(=O)c2ccccc2n(Cc2nc(-c3ccccc3C)no2)c1=O`, the RP-LC retention time is 1240 s.
The figure for `COc1ccc(Cn2c(C)c(CNCCc3ccco3)c(C(=O)O)c2C)cc1` is 704 s; for `Cc1ccc(CNC(=O)c2cc(C(C)C)n3nccc3n2)cc1` it is 1250 s; for `Cc1ccsc1C(=O)N1CCC(Nc2ncnc3c2CCC3)CC1` it is 778 s.
The figure for `CCCc1noc(-c2ccc(-n3ncc(C(=O)NC4CCCC4)c3C)nc2)n1` is 1030 s; for `CCn1ccc(C(=O)N2CCC[C@H]2c2nc(-c3ccccc3)n[nH]2)n1` it is 662 s.
The figure for `CCc1ccc(NC(=O)N2CC(n3cnnc3C3CCOCC3)C2)cc1` is 599 s; for `O=C(NCC1CCN(C(=O)Oc2ccccc2)CC1)Nc1ccc(C(F)(F)F)cc1` it is 947 s; for `O=C(c1ccc(-n2cnnn2)cc1)N1CCCc2ccccc21` it is 734 s.
Consider `O=C(Cn1cnc2c(sc3nc(-c4ccccc4)ccc32)c1=O)Nc1ccccc1`, for which the RP-LC retention time was found to be 986 s.
`COc1cc(OC)c(NC(=O)C2CCCN(C(=O)c3cc(-c4ccncc4)n[nH]3)C2)cc1Cl` (stereo not given) had an RP-LC retention time of 633 s.
Then `Cc1ccc(-c2noc(CN3N=NC4C(=O)N(c5ccc(C(C)C)cc5)C(=O)C43)n2)cc1` (stereo not given), with 1150 s; and `COc1ccccc1N1CCN(C(=O)c2cn3ccccc3n2)CC1`, with 603 s; and `CC(=O)NS(=O)(=O)c1ccc2sc(C)nc2c1`, with 700 s.
Then `CCc1nn2c(CNS(=O)(=O)c3cccc(F)c3)c(-c3ccccc3)nc2s1`, with 935 s.
Then `COc1ccc(NC(=O)c2cnc(N3CCC4(CC3)OCCO4)nc2N)cc1`, with 635 s; and `O=C(CN1Cc2ccccc2C1=O)N[C@@H](Cc1c[nH]c2ccccc12)C(=O)O`, with 661 s.
On to `COCCn1nc(C(=O)N(C)CCCc2c(C)nn(C)c2C)c2c1CCNC2`, for which the RP-LC retention time turned out to be 572 s.
Then `CN(C(=O)c1ccc(F)cc1C(F)(F)F)C1CCN(c2nnc(-c3ccnn3C)c3ccccc23)CC1`, with 850 s; and `CCN1C=C(C(=O)OCc2c(C)noc2C)C(C)=NS1(=O)=O`, with 831 s; and `CC1(O)CCOC2(CCN(C(=O)c3ccc(Br)o3)CC2)C1` (stereo not given), with 690 s.
The figure for `Cc1ccc(-c2ccc(N3CCCC(C(=O)NCCc4cccs4)C3)nn2)cc1C` (stereo not given) is 808 s; for `Cc1ccc(C)c2sc(N(C)CC(=O)NCCSc3nncn3C)nc12` it is 719 s.
The figure for `O=C(CCn1cnc2cc(-c3noc(-c4ccc(Br)o4)n3)ccc21)N1CCCCC1` is 796 s; for `CCOC(=O)C1CCN(S(=O)(=O)c2cc3c4c(c2)CCC(=O)N4CCC3)CC1` it is 769 s.
With `O=C(c1ccc2ncnc(N3CCCC3)c2c1)N1CCCC1`, the RP-LC retention time worked out at 580 s.
`Cc1cc([N+](=O)[O-])nn1CC(=O)NCc1cccs1` registered an RP-LC retention time of 572 s.
Then `CCc1nc2cc3c(cc2n1CC(=O)Nc1ccc2c(c1)OCCCO2)OCCO3`, with 648 s; and `CC1=C(c2ccccc2)S(=O)(=O)N=C1N1CCCN(C(=O)c2cc(F)cc(F)c2)CC1`, with 846 s; and `CN1C(=O)c2cc(C(=O)NCc3ccccc3F)nn2CC1(C)C(=O)NCc1ccc(F)cc1` (stereo not given), with 792 s.
For `Cn1c(=O)n(C)c2cc(CNCCC3=CCCCC3)ccc21`, the RP-LC retention time was 600 s.
Then `O=C1Cc2cc(NC(=O)NCCCc3ccccc3)ccc2N1`, with 657 s; and `O=C(Cc1ccc(Br)cc1)N1CCN(C(=O)c2cc(-c3cccnc3)n[nH]2)CC1`, with 638 s; and `COCCC(=O)N1CCCn2nc(-c3cccs3)cc2C1`, with 682 s.
The figure for `COc1ccc(N2CCN(c3cc(SCC(=O)Nc4ccc(C)cc4Cl)ncn3)CC2)cc1` is 1200 s; for `Cc1ccccc1-c1noc(CN2C(=O)COc3ccc(Cl)cc32)n1` it is 1120 s.
On to `O=C(CCCn1ncn2c(cc3occc32)c1=O)N1CCN(c2ccccn2)CC1`, for which the RP-LC retention time is 577 s.
Then `Cc1cc(C)c(NC(=O)Cn2nc3cc(-c4ccccc4)nc(C)n3c2=O)c(C)c1`, with 985 s.
The figure for `CCNC(=O)c1n[nH]c2c1CN(C(=O)c1ccc(OC(F)(F)F)cc1)CC2` is 728 s; for `CCCS(=O)(=O)N(C)C1CCc2nn(Cc3ccccc3)c(=O)n2CC1` (stereo not given) it is 755 s.
Consider `COc1ccc(C)cc1NC(=O)C1CCN(c2cc(N3CCSCC3)ncn2)CC1`, for which the RP-LC retention time was 717 s.
The figure for `O=C(CCc1nc(N2CCCCC2)c2c(-c3ccccc3)noc2n1)NC1CC1` is 909 s.
In turn, `Cc1ccn2cc(-c3ccc(NC(=O)c4ccccc4I)cc3)nc2n1` showed an RP-LC retention time of 656 s.
The figure for `O=C(CN1CCc2ccccc2C1C(=O)N1CCCCC1)NCc1ccc(F)cc1Cl` (stereo not given) is 918 s; for `COCC1(O)CCOC2(CCN(Cc3cccc(Cl)c3F)CC2)C1` (stereo not given) it is 560 s.
Regarding `Cc1cccc(S(=O)(=O)N2CCC(c3cc(N)on3)CC2)c1`, the RP-LC retention time is 615 s.
On to `CC1(C(=O)NC2CCCC2)CN(S(C)(=O)=O)CC(=O)N1Cc1ccc(Cl)cc1` (stereo not given), for which the RP-LC retention time came out at 834 s.
Then `COCCN(Cc1cccs1)C(=O)CN1C[C@H]2C[C@H](C1)[C@H]1CCCC(=O)N1C2`, with 556 s; and `CCOCCCNC(=O)c1c(OCC)cc(=O)n2c1CCCCC2`, with 621 s; and `O=C([C@@H]1C[C@H](F)CN1S(=O)(=O)c1cc(F)cc(F)c1)N1CCc2ccccc2C1`, with 961 s.
Then `O=c1c(=O)n(-c2ccccc2)ccn1Cc1nc(-c2cccc(F)c2)no1`, with 805 s.
The figure for `CN1CCN(c2ccc([N+](=O)[O-])c3no[n+]([O-])c23)CC1` is 631 s.
In turn, `COc1ccc(-c2csc(NC(=O)c3ccc(Cl)c(Cl)c3)n2)cc1` returned an RP-LC retention time of 1140 s.
Then `COC(=O)CNC(c1ccccc1)c1cc(C)ccc1NS(=O)(=O)c1ccc(C)cc1` (stereo not given), with 904 s; and `Cc1[nH]c2ccccc2c1C(Nc1nc2ccccc2s1)c1ccccn1` (stereo not given), with 703 s.
The figure for `N#Cc1ccsc1NC(=O)c1cccc(Cl)c1` is 861 s.
